# Source: publication PMC8001783, “New Lignanamides with Antioxidant and Anti-Inflammatory Activities Screened Out and Identified from Warburgia ugandensis Combining Affinity Ultrafiltration LC-MS with SOD and XOD Enzymes” (Antioxidants, 2021)
# Values joined by “and” are separate entries in the source; they are usually repeats but may differ in a detail not shown here. Equal entries are not always repeated. Marks after values point to notes of the source that are not given here.
# What was measured:
# [1] = DPPH free radical scavenging assay; conditions: 30 min, 517 nm, n = 3; for IC50: pure compounds
# Description: The DPPH free radical scavenging activities of extracts and pure compounds from stem barks of W. ugandensis were tested according to previous studies with slight modifications. Firstly, 10 µL solutions of the samples, appropriately diluted with MeOH, were homogeneously mixed with 190 µL solution of DPPH (0.1 mM in MeOH) in a 96-well plate. Secondly, the mixtures were gently shaken and put at room temperature for 30 min in the darkness. Finally, the absorbance was recorded at 517 nm with multifunctional microplate reader. Trolox was used as positive control, and MeOH was used as blank control. Each of the samples and controls were tested in triplicate (n = 3). The antioxidant activities of DPPH were expressed as IC50 (concentration of samples caused 50% inhibition) and TEAC values. The TEAC values were calculated from the standard curve of Trolox and expressed as millimoles of Trolox equivalents per gram of sample (mmol TE/g). The inhibition of the DPPH radical was calculated according to the following formula:DPPH scavenging activity (%) = (1 − absorbance of sample/absorbance of blank control) × 100,(1) where DPPH scavenging activities (%) were plotted against the concentration of samples to obtain the IC50.
# [2] = ABTS free radical scavenging assay; conditions: 30 min, 734 nm, n = 3; for IC50: pure compounds
# Description: The ABTS free radical scavenging activities of extracts and pure compounds from stem barks of W. ugandensis were tested according to previous studies with slight modifications. ABTS^+ solution was prepared by mixing equal volumes of potassium persulfate (4.9 mM in H2O) and ABTS (7.0 mM in H2O) and then incubated for 12 h in the darkness. The prepared ABTS^+ solution was diluted with MeOH to ensure an absorbance value about 0.700 ± 0.005 at 734 nm. Firstly, 10 µL of appropriately diluted solution of samples was added to the 190 µL ABTS^+ solution in 96-well plate. Secondly, the mixtures were gently shaken and put at room temperature for 30 min in the darkness. Finally, the absorbance was recorded at 734 nm with multifunctional microplate reader. Trolox was used as positive control, and MeOH was used as blank control. Samples and controls were tested in triplicate (n = 3). The antioxidant activities of ABTS were expressed as IC50 and TEAC values. The inhibition of the ABTS radicals was calculated according to the following formula:ABTS scavenging activity (%) = (1 − absorbance of sample/absorbance of blank control) × 100,(2) where ABTS scavenging activities (%) were plotted against the concentration of samples to acquire the IC50.
# [3] = Ferric reducing antioxidant power (FRAP) assay; conditions: 37 °C, 10 min, 593 nm, n = 3
# Description: The ferric reducing antioxidant power assays on different extracts and pure compounds of stem barks from W. ugandensis were tested according to previous studies with slight modifications. Firstly, freshly prepared FRAP reagent (Fe^3+-TPTZ solution) was composed of FeCl3∙6H2O (20 mM in H2O), TPTZ (10 mM in 40 mM HCl), and acetate buffer (300 mM, pH = 3.6) at a ratio of 1:1:10 (v/v/v), then incubated at 37 °C after preparation, and used within 1–2 h. Secondly, 10 µL of appropriately diluted solution of samples was added to the 190 µL freshly prepared FRAP reagent in 96-well plate. Thirdly, the mixtures were gently shaken and put at 37 °C for 10 min. Finally, the absorbance was recorded at 593 nm with multifunctional microplate reader. Trolox was used as a positive control, and MeOH was used as blank control. Each of the samples and controls were tested in triplicate (n = 3). The antioxidant activities of FRAP were expressed as FRAP values and TEAC values. The FRAP values were calculated and expressed as millimoles of Fe^2+ equivalents per gram of sample (mmol Fe^2+/g) based on a calibration curve plotted using FeSO4∙7H2O as standard at a concentration ranging from 0.0185 to 1.5 mM.
# [4] = tested on: xanthine oxidase (XOD); assay: Affinity ultrafiltration LC-MS/MS with XOD (relative binding affinity); conditions: peaks of WUE-A4, XOD 2 U, 37 °C 1 h, n = 3
# Description: (§1) The experimental conditions were proposed according to previous relevant studies. Briefly, the optimized experiment was composed of three steps. Incubation was the first step, where 100 μL WUE-A4 (10.0 mg/mL), 10 µL SOD (2 U) or XOD (2 U), and 90 µL Tris-HCl (pH = 7.8) were mixed well in 1.5 mL EP tubes, and then incubated at 37 °C in the dark for 1 h. Meanwhile, the incubation operations of inactivated enzymes (inactivated enzymes were obtained by heating enzymes in a 99 °C water bath for 10 min) were the same as the active enzymes. Adsorption was the second step, where the incubated solutions were transferred to ultrafiltration tubes with 30 KDa (for SOD) or 10 KDa (for XOD) ultrafiltration membranes and then centrifuged at 10,000 rpm for 10 min at 25 °C. Simultaneously, components which had no binding affinity to enzymes were washed out. Immediately, 300 µL of Tris-HCl solution (pH = 7.8) was added to the ultrafiltration tubes and centrifuged at 10,000 rpm for 5 min at 25 °C to remove the potential unbound components. Desorption was the third step, where 300 µL of 90% (v/v) MeOH-H2O was added and incubated for 10 min at room temperature, and the mixed solutions were centrifuged at 10,000 rpm for another 10 min at 25 °C. After that, the desorption process was repeated two times to release those components with specific bindings to SOD or XOD from the enzyme-ligand complexes. Finally, those ultrafiltrates were dried and reconstituted in 50 µL MeOH for the HPLC-UV/ESI-MS/MS analysis.
# (§2) HPLC-UV/ESI-MS/MS was carried out to characterize the components in WUE-A4 before and after ultrafiltration by using a Thermo Accela 600 series HPLC connected with a TSQ Quantum Access MAX mass spectrometer (Thermo Fisher Scientific, San Jose, CA, USA). A Waters Symmetry RP-C18 column (4.6 × 250 mm, 5 µm) was used to perform chromatographic analysis at 30 °C, and the mobile phase consisted of H2O with 0.1% formic acid (A) and ACN (B). The optimized HPLC elution procedures were as follows: 0–15 min, 17% B; 15–40 min, 17–30% B, 40–42 min: 30–56% B. The flow rate was 0.8 mL/min, the injection volume was 10 µL, and the HPLC-UV chromatograms were detected at a wavelength of 254 nm. The negative ion modes were applied to obtained ESI-MS/MS data. Moreover, the parameters of instrument were set as follows: the vaporizer temperature was 350 °C, the capillary temperature was 250 °C, the spray voltage was 3000 V, the cone voltage energy was 40 V, the collision energy was 10 V, the sheath gas pressure was 40 psi, the aux gas pressure was 10 psi, the drying gas flow rate was 6.0 L/min, and the mass range was set from 50 to 1100 (m/z) in the full-scan mode. Finally, the Thermo Xcalibur ChemStation (Thermo Fisher Scientific) was used for data acquisition and analysis.
# (§3) For further evaluation of the affinity binding strength between the potential ligands and the target enzymes, the relative binding affinity (RBA) was employed to compare the variation of the correlated peak areas in the UF-HPLC-UV chromatograms before and after activation. The RBA formula is expressed as RBA = Aactive/Ainactivated, where the Aactive and Ainactivated represent the peak areas obtained from the WUE-A4 samples with activated and inactivated SOD or XOD, respectively.
# [5] = tested on: superoxide dismutase (SOD); assay: Affinity ultrafiltration LC-MS/MS with SOD (relative binding affinity); design: key: -: No binding affinity; conditions: peaks of WUE-A4, SOD 2 U, 37 °C 1 h, n = 3
# Description: as §1, §2, §3
DPPH IC50 ([1]; extracts/fractions),IC50 [1] [µM],ABTS IC50 ([2]; extracts/fractions),IC50 [2] [µM],UF-RBA XOD (relative binding affinity = Aactive/Ainactivated) [4],UF-RBA XOD (relative binding affinity = Aactive/Ainactivated) ([4]; listed as peak 12),UF-RBA SOD (relative binding affinity = Aactive/Ainactivated) [5],UF-RBA SOD (relative binding affinity = Aactive/Ainactivated) ([5]; listed as peak 3),Compound,FRAP value [3]
9.0 ± 0.3 ^f µg/mL,36,5.9 ± 0.1 ^e µg/mL,22.4,,,,,"Cc1c(C)c2c(c(C)c1O)CCC(C)(C(=O)O)O2 (stereo not shown) [Trolox, 6-Hydroxy-2,5,7,8-tetramethylchroman-2-carboxylic acid, reference compound]",16.212 ± 1.271 mmol Fe^2+/g and 16.2 ± 1.3 ^a mmol Fe^2+/g
,142 ± 36.1,,1150 ± 630,"1.7 ± 0.5 ^b,c",1.70,-,,"1-(3,4-dihydroxy-5-methoxyphenyl)-1,2-dihydroxy-7,8-dihydroxy-N-[(4-hydroxyphenyl)-ethyl]-N′-[(4-hydroxyphenyl) -ethyl]-6-methoxynaphthalene-2,3-dicarboxamide [compound 12]",1.1 ± 0.2 ^c mmol Fe^2+/g
,,,,1.0 ± 0.2 ^d,,"2.0 ± 0.1 ^a,b",1.99,"C[C@@H]1O[C@@H](O[C@@H]2[C@@H](O)[C@H](O)[C@@H](CO)O[C@H]2c2cc(-c3cc(=O)c4c(O)cc(O)cc4o3)ccc2O)[C@H](O)[C@H](O)[C@H]1O [compound 3, 2-[3-[2-O-(6-deoxy-α-L-mannopyranosyl)-β-D-glucopyranosyl]-4-hydroxyphenyl]-5,7-dihydroxy-4H-1-benzopyran-4-one]",
,,,,"1.2 ± 0.1 ^c,d",,1.1 ± 0.1 ^e,,"O=C1OCC2OC(Oc3ccc(cc3)C(=O)OCC3OC(Oc4ccc1cc4)C(O)C(O)C3O)C(O)C(O)C2O [compound 5, 4-[(6′-O-β-D-allopyranosyl)-oxy]-hydroxy-benzoic acid cyclic dimeric inner ester]",
